Assay results: publication PMC9014845 (Clinical cancer research : an official journal of the …, 2019)

Test system: patients with advanced solid tumors harboring FGFR1–3 gene alterations
Assay: Phase I dose-escalation: safety/tolerability
Type: in vivo, human

Debio 1347
TEAE: Back pain (150 mg (n=3), all grades): 1 (33) Number (%) of patients | TEAE: Blurred vision (150 mg (n=3), all grades): 0 Number (%) of patients | TEAE: Constipation (150 mg (n=3), all grades): 1 (33) Number (%) of patients | TEAE: Creatinine increased (in blood) (150 mg (n=3), all grades): 0 Number (%) of patients | TEAE: Decreased appetite (150 mg (n=3), all grades): 1 (33) Number (%) of patients | TEAE: Diarrhea (150 mg (n=3), all grades): 1 (33) Number (%) of patients | TEAE: Dry eye (150 mg (n=3), all grades): 1 (33) Number (%) of patients | TEAE: Dry mouth (150 mg (n=3), all grades): 1 (33) Number (%) of patients | TEAE: Dry skin (150 mg (n=3), all grades): 1 (33) Number (%) of patients | TEAE: Dysgeusia (150 mg (n=3), all grades): 2 (67) Number (%) of patients | TEAE: Dyspnea (150 mg (n=3), all grades): 1 (33) Number (%) of patients | TEAE: Edema peripheral (150 mg (n=3), all grades): 1 (33) Number (%) of patients | TEAE: Fatigue (150 mg (n=3), all grades): 0 Number (%) of patients | TEAE: Hyperphosphatemia (150 mg (n=3), all grades): 3 (100) Number (%) of patients | TEAE: Hypertension (150 mg (n=3), all grades): 0 Number (%) of patients | TEAE: Hypokalemia (150 mg (n=3), all grades): 0 Number (%) of patients | TEAE: Hypomagnesemia (150 mg (n=3), all grades): 0 Number (%) of patients | TEAE: Mucosal inflammation (150 mg (n=3), all grades): 1 (33) Number (%) of patients | TEAE: Myalgia (150 mg (n=3), all grades): 0 Number (%) of patients | TEAE: Nail changes (150 mg (n=3), all grades): 3 (100) Number (%) of patients | TEAE: Nausea (150 mg (n=3), all grades): 2 (67) Number (%) of patients | TEAE: Stomatitis (150 mg (n=3), all grades): 1 (33) Number (%) of patients | TEAE: Vomiting (150 mg (n=3), all grades): 1 (33) Number (%) of patients | Patients requiring dose reduction (60 and 80 mg): 20% | Any TEAE (all doses (n=58), all grades): 58 (100%) Number (%) of patients | Any TEAE leading to discontinuation (all doses (n=58), all grades): 7 (12.1) Number (%) of patients | Any TEAE leading to dose reduction (all doses (n=58), all grades): 13 (22.4) Number (%) of patients | Any TEAE leading to treatment interruption (all doses (n=58), all grades): 26 (44.8) Number (%) of patients | Serious TEAE (all doses (n=58), all grades): 20 (34.5) Number (%) of patients | TEAE: ALT increased (all doses (n=58), all grades): 6 (10) Number (%) of patients | TEAE: AST increased (all doses (n=58), all grades): 6 (10) Number (%) of patients | TEAE: Abdominal pain (all doses (n=58), all grades): 12 (21) Number (%) of patients | TEAE: Alopecia (all doses (n=58), all grades): 11 (19) Number (%) of patients | TEAE: Anemia (all doses (n=58), all grades): 12 (21) Number (%) of patients | TEAE: Back pain (all doses (n=58), all grades): 9 (16) Number (%) of patients | TEAE: Blurred vision (all doses (n=58), all grades): 6 (10) Number (%) of patients | TEAE: Constipation (all doses (n=58), all grades): 19 (33) Number (%) of patients | TEAE: Creatinine increased (in blood) (all doses (n=58), all grades): 8 (14) Number (%) of patients | TEAE: Decreased appetite (all doses (n=58), all grades): 18 (31) Number (%) of patients | TEAE: Diarrhea (all doses (n=58), all grades): 24 (41) Number (%) of patients | TEAE: Dry eye (all doses (n=58), all grades): 8 (14) Number (%) of patients | TEAE: Dry mouth (all doses (n=58), all grades): 15 (26) Number (%) of patients | TEAE: Dry skin (all doses (n=58), all grades): 10 (17) Number (%) of patients | TEAE: Dysgeusia (all doses (n=58), all grades): 10 (17) Number (%) of patients | TEAE: Dyspnea (all doses (n=58), all grades): 12 (21) Number (%) of patients | TEAE: Edema peripheral (all doses (n=58), all grades): 8 (14) Number (%) of patients | TEAE: Fatigue (all doses (n=58), all grades): 22 (38) Number (%) of patients | TEAE: Hyperphosphatemia (all doses (n=58), all grades): 44 (76) Number (%) of patients | TEAE: Hypertension (all doses (n=58), all grades): 7 (12) Number (%) of patients | TEAE: Hypokalemia (all doses (n=58), all grades): 8 (14) Number (%) of patients | TEAE: Hypomagnesemia (all doses (n=58), all grades): 7 (12) Number (%) of patients | TEAE: Mucosal inflammation (all doses (n=58), all grades): 8 (14) Number (%) of patients | TEAE: Myalgia (all doses (n=58), all grades): 12 (21) Number (%) of patients | TEAE: Nail changes (all doses (n=58), all grades): 17 (29) Number (%) of patients | TEAE: Nausea (all doses (n=58), all grades): 23 (40) Number (%) of patients | TEAE: Stomatitis (all doses (n=58), all grades): 12 (21) Number (%) of patients | TEAE: Vomiting (all doses (n=58), all grades): 11 (19) Number (%) of patients | Any TEAE (all doses (n=58), grade ≥3): 37 (64%) Number (%) of patients | TEAE: ALT increased (all doses (n=58), grade ≥3): 2 (3) Number (%) of patients | TEAE: AST increased (all doses (n=58), grade ≥3): 1 (2) Number (%) of patients | TEAE: Abdominal pain (all doses (n=58), grade ≥3): 1 (2) Number (%) of patients | TEAE: Alopecia (all doses (n=58), grade ≥3): 0 Number (%) of patients | TEAE: Anemia (all doses (n=58), grade ≥3): 7 (12) Number (%) of patients | TEAE: Back pain (all doses (n=58), grade ≥3): 1 (2) Number (%) of patients | TEAE: Blurred vision (all doses (n=58), grade ≥3): 0 Number (%) of patients | TEAE: Constipation (all doses (n=58), grade ≥3): 1 (2) Number (%) of patients | TEAE: Creatinine increased (in blood) (all doses (n=58), grade ≥3): 0 Number (%) of patients | TEAE: Decreased appetite (all doses (n=58), grade ≥3): 1 (2) Number (%) of patients | TEAE: Diarrhea (all doses (n=58), grade ≥3): 2 (3) Number (%) of patients | TEAE: Dry eye (all doses (n=58), grade ≥3): 0 Number (%) of patients | TEAE: Dry mouth (all doses (n=58), grade ≥3): 0 Number (%) of patients | TEAE: Dry skin (all doses (n=58), grade ≥3): 0 Number (%) of patients | TEAE: Dysgeusia (all doses (n=58), grade ≥3): 0 Number (%) of patients | TEAE: Dyspnea (all doses (n=58), grade ≥3): 3 (5) Number (%) of patients | TEAE: Edema peripheral (all doses (n=58), grade ≥3): 0 Number (%) of patients | TEAE: Fatigue (all doses (n=58), grade ≥3): 0 Number (%) of patients | TEAE: Hyperphosphatemia (all doses (n=58), grade ≥3): 12 (21) Number (%) of patients | TEAE: Hypertension (all doses (n=58), grade ≥3): 0 Number (%) of patients | TEAE: Hypokalemia (all doses (n=58), grade ≥3): 1 (2) Number (%) of patients | TEAE: Hypomagnesemia (all doses (n=58), grade ≥3): 0 Number (%) of patients | TEAE: Mucosal inflammation (all doses (n=58), grade ≥3): 1 (2) Number (%) of patients | TEAE: Myalgia (all doses (n=58), grade ≥3): 0 Number (%) of patients | TEAE: Nail changes (all doses (n=58), grade ≥3): 0 Number (%) of patients | TEAE: Nausea (all doses (n=58), grade ≥3): 0 Number (%) of patients | TEAE: Stomatitis (all doses (n=58), grade ≥3): 2 (3) Number (%) of patients | TEAE: Vomiting (all doses (n=58), grade ≥3): 0 Number (%) of patients | Patients in whom adverse events required dose modifications (all doses, n=58): 52% | Patients requiring dose modifications due to AEs (all doses, n=58): 30 (52%) patients (%) | Patients with dose modifications due to asymptomatic hyperphosphatemia (all doses, n=58): 22% | Patients reporting blurred vision (at 30–150 mg, mainly grade 1): 6 patients | Recommended phase 2 dose (RP2D) (dose reduction to 60 mg/day in case of intolerable toxicity): 80 mg/daily | Maximum tolerated dose (doses up to 150 mg/day once daily, 3+3+3 design): not formally reached | Patients with DLTs (first 4 weeks, at three dose levels, 58 treated at 10 to 150 mg/day): Five | Number of DLTs (first 4 weeks, dry mouth/eyes, hyperamylasemia, hypercalcemia, hyperbilirubinemia, hyperphosphatemia, stomatitis): 6 DLTs | SAEs deemed possibly study drug related (DLTs) (hyperamylasemia (80 mg), stomatitis (110 mg)): two | Maximum severity of dermatological toxicity / nail changes (in vivo): ≤ 2 grade | Patients with QTc prolongations of grade 1 or 2 (in vivo): Three | Patients with nail changes requiring dose adjustment (in vivo): 3 patients | Drug-related deaths (n=58): no death was considered drug-related | Number of SAEs (n=58): 39 SAEs | Patients experiencing SAEs (n=58): 20 patients | Patients who died from disease progression (n=58): 21 patients | Patients with highest TEAE severity grade 1 (n=58): 4 (7%) patients (%) | Patients with highest TEAE severity grade 2 (n=58): 17 (29%) patients (%) | Patients with highest TEAE severity grade 3 (n=58): 28 (48%) patients (%) | Patients with highest TEAE severity grade 4 (n=58): 2 (3%) patients (%) | Patients with highest TEAE severity grade 5 (n=58): 7 (12%) patients (%) | Dose up to which tolerability was acceptable (oral once daily): up to 80 mg/day | Lowest dose at which serum phosphate increases occurred (typically between 1st and 3rd week of dosing): 20 mg | Dose reduction required (up to 40 mg): no dose reduction was required
